From US10849886B2, “Combination therapy using azabicyclo compound for cancer” (TAIHO PHARMACEUTICAL CO., LTD., priority 2013, dated 2020)

Tests used:
[1] = test system: NCI-N87 tumor; experiment: Nude mouse xenograft, stomach cancer line NCI-N87, tumor growth (T/C); assay type: in vivo, nude mice; conditions: Compound 1 5 mg/kg orally, cisplatin 7 mg/kg intravenously on first day, alone or combined; test end date
[2] = test system: SBC-1 tumor; experiment: Nude mouse xenograft, small cell lung cancer line SBC-1, tumor growth (T/C); assay type: in vivo, nude mice; conditions: Compound 1 28 mg/kg orally on Days 1, 3, 5, 8, 10, 12, amrubicin […] intravenously on first day, alone or combined; test end date
[3] = test system: NCI-H2170 tumor; experiment: Nude mouse xenograft, NSCLC NCI-H2170, tumor growth (T/C); assay type: in vivo, nude mice; conditions: Compound 1 5 mg/kg orally, docetaxel 15 mg/kg intravenously on first day, alone or combined; RTV ratio to control on test end date
Experimental: NCI-H2170 (ATCC #CRL-5928) as a human non-small cell lung cancer (NSCLC) cell line was obtained from American Type Culture Collection (ATCC; Manassas, Va., USA). In RPMI-1640 (containing 4.5 g/L of glucose, 10 mM of HEPES, and 1 mM of sodium pyruvate) (Wako Pure Chemical Industries, Ltd.) medium supplemented with 10% fetal bovine serum (FBS), cell lines were cultured. The cells cryopreserved in liquid nitrogen were quickly thawed at 37° C., transferred to a tissue culture flask containing a medium, and allowed to grow in a 5% CO2 incubator at 37° C. The NCI-H2170 cell lines were sub-cultured once to twice a week at a dilution ratio of 1:5 to 1:10. […]
Subsequently, the cell was allowed to grow for one to two weeks after transplantation until the tumor volume (TV) reached 100 to 300 mm^3. Digimatic Caliper was used in measurement of the tumor diameter, the major axis and the minor axis of the tumor were measured, and TV was calculated by the following formula. […]
Animals having an extremely small or large tumor volume were excluded and the remaining animals were allocated to each group by a stratified randomization allocation method using TV as an index. A relative tumor volume (RTV) was calculated from TV as an endpoint. […] RTV and T/C (%) were calculated by the following formula. […]

[4] = test system: NCI-H441 tumor; experiment: Nude mouse xenograft, NSCLC NCI-H441, tumor growth (T/C); assay type: in vivo, nude mice; conditions: Compound 1 5 mg/kg orally, paclitaxel 30 mg/kg intravenously on first day, alone or combined; test end date
[5] = Storage stability of Compound 1 suspension in 0.5% hypromellose aqueous solution; assay type: physicochemical; conditions: stored in refrigerator
Experimental: In order to administer Compound 1, a 0.5% hypromellose aqueous solution was prepared. Hypromellose was weighed in a beaker, and distilled water (Otsuka Pharmaceutical Factory, Inc.) was added thereto in an amount of about 80% of the preparation amount. The mixture was completely dissolved by being stirred overnight using a stirrer at a low-temperature chamber, the resultant solution was transferred to a measuring cylinder, and distilled water was added to dilute to the preparation amount. Compound 1 was weighed in a necessary amount, pulverized with an agate mortar, suspended with a 0.5% hypromellose aqueous solution to have a predetermined concentration, and then subjected to ultrasonic treatment, thereby obtaining a homogeneous suspension. 10 mL of this suspension was administered orally per kg of body weight. Incidentally, the suspension was stored in a refrigerator at times other than administration.

Row | Structure (SMILES) | T/C value [1] [%] | T/C value [2] [%] | T/C value [3] [%] | T/C value [4] [%] | stability of suspension [5]
1 | CCc1cc(C(N)=O)ccc1-n1nc(C(C)C)c2c(-n3cnc(-c4cnn(C)c4)c3)ccnc21 [Compound 1, 3-ethyl-4-{3-isopropyl-4-(4-(1-methyl-1H-pyrazol-4-yl)-1H-imidazol-1-yl)-1H-pyrazolo[3,4-b]pyridin-1-yl}benzamide] | 51 | 49 | 72 | 63 | refrigerator-stable for two weeks
2 | CC(=O)[C@]1(N)Cc2c(O)c3c(c(O)c2[C@@H](O[C@H]2C[C@H](O)[C@H](O)CO2)C1)C(=O)c1ccccc1C3=O [amrubicin, reference compound] | – | 40 | – | – | –
3 | N.N.[Cl][Pt][Cl] [cisplatin, reference compound] | 65 | – | – | – | –
4 | CC(=O)O[C@@]12CO[C@@H]1C[C@H](O)[C@@]1(C)C(=O)[C@H](O)C3=C(C)[C@@H](OC(=O)[C@H](O)[C@@H](NC(=O)OC(C)(C)C)c4ccccc4)C[C@@](O)([C@@H](OC(=O)c4ccccc4)[C@H]21)C3(C)C [docetaxel, reference compound] | – | – | 86 | – | –
5 | CC(=O)O[C@H]1C(=O)[C@@]2(C)[C@H]([C@H](OC(=O)c3ccccc3)[C@]3(O)C[C@H](OC(=O)[C@H](O)[C@@H](NC(=O)c4ccccc4)c4ccccc4)C(C)=C1C3(C)C)[C@]1(OC(C)=O)CO[C@@H]1C[C@@H]2O [paclitaxel, reference compound] | – | – | – | 41 | –
